“Also recorded” adds a separate entry of the source. Read-outs that look alike come from different tables or passages of the source.
Experiments:
Ub Ser65 phosphorylation [1] = experiment: Immunofluorescence for Ub Ser65 phosphorylation in YFP-parkin transfected HeLa cells; type: cell-based
Description: (§1) Cells were seeded on PerkinElmer PhenoPlate 96-well plates, followed by treatment with compounds. Cells were fixed in chilled 4% PFA for 10 min followed by washes in PBS. […] Following PBS washes, cells were blocked using blocking buffer (PBS, 5% BSA, 0.1% Tween20) for 1 h at room temperature. Primary antibodies were diluted in blocking buffer and added to cells to be incubated overnight at 4° C. Cells were subsequently washed with PBS-T and the appropriate secondary antibodies (diluted in blocking buffer) were added for 2 h at room temperature in darkness. 10 μg/ml of Hoechst 33258 stain was added with secondary antibodies when required. Cells were again washed with PBS-T followed by addition of PBS with 0.02% sodium azide. Cells were then stored at 4° C. until ready for imaging. Primary antibodies used for immunofluorescence are as follows: Phospho-Ub Ser 65 (Sigma-Aldrich cat #ABS1513-1), TOM20 (Santa-Cruz cat #sc-17764). Secondary antibodies and stains used in immunofluorescence; Anti-IgG2a Alexa Fluor™ 546 (ThermoFisher cat #A21133) Anti-rabbit Alexa Fluor™ 647 (ThermoFisher cat #A21244), Hoechst 33258 stain (Sigma-Aldrich cat #B2883).
(§2) Confocal microscopy was performed using a Zeiss LSM800 w/Airyscan fluorescent microscope equipped with lasers emitting at 405 nm, 488 nm, 561 nm and 640 nm. All images were captured using a 40x oil immersion objective lens and processed using Zeiss ZEN software. Images were analysed and quantified using Columbus (PerkinElmer) and TIBCO Spotfire software.
(§3) First, HeLa cells transfected with YFP-parkin were either left untreated or treated with 50 μM kinetin riboside, nucleosides 9a and 9c for 24 h.

[2] = tested on: HeLa cells transfected with YFP-parkin; experiment: Immunofluorescence for YFP-parkin localisation and TOM20 (mitochondrial fragmentation); type: cell-based
Description: as §1, §2, §3

[3] = tested on: ubiquitin Ser65 phosphorylation; experiment: Ubiquitin Ser65 phosphorylation in astrocytes with or without valinomycin; type: cell-based; details: for ubiquitin Ser65 phosphorylation after pre-treatment followed by valinomycin, compared to valinomycin alone: 50 μM 24 h, 50 nM valinomycin for 5 h; for ubiquitin Ser65 phosphorylation, compound alone: 50 μM, 24 h
Description: Briefly, astrocytes were treated with 50 μM of the nucleobase kinetin, nucleosides 9a and 9c or DMSO for 24 h and 5 h prior to lysis, the samples were treated with 50 nM valinomycin, a mitochondrial uncoupler.

PINK1 [4] = target: T1, PINK1 (Homo sapiens, UniProt Q9BXM7); experiment: PINK1 activation in cells judged by parkin Ser65 phosphorylation (parkin-transfected HeLa cells); type: cell-based; details: 50 μM, 1 h
T1 construct: HeLa cells, which express PINK1 endogenously; endogenous in cells; host or cells: HeLa cells transiently transfected with parkin
Description: (§4) Both HeLa and parkin-overexpressed HeLa cells were maintained in DMEM high glucose (Gibco), 10% FBS (Sigma-Aldrich) at 37° C. with 5% CO2. For experiments, cells were counted and seeded into a range of culture plates, depending on the experiment, cell counting was done using the Cellometer Auto T4 with TrypanBlue (Gibco). […] Alternatively, HeLa cells were seeded in well plates and then transfected with […] of parkin cDNA using the PEI method once the plated cells reached 60% confluency. After 6 hours, the media was changed. Sub-culturing was done when the cells reached ˜90% confluency.
(§5) Cell culture with 70-80% confluency was lysed as follows: cells were washed with Phosphate Buffer Saline (PBS) (Sigma). 150 μl of lysis buffer was used on each well containing either: • 50 mM Tris-HCl pH 7.5, 1 mM EDTA, 1 mM EGTA, 0.27 M sucrose, 1 mM Na3VO4, 50 mM NaF, 5 mM Na pyrophosphate and fresh 1 mM benzamidine, 1% NP-40 and […]; or • 50 mM Tris-HCl pH 7.5, 1 mM EDTA, 1 mM EGTA, 10 mM Na β-glycerophosphate, 0.27 M sucrose, 1 mM Na3VO4, 50 mM NaF, 10 mM Na pyrophosphate with fresh 1 mM benzamidine, 1% Triton X-100, complete EDTA-free Protease Inhibitor, Phosphatase inhibitor cocktail 3 and 100 μM of 2-chloroacetamide.
(§6) The cells were scrapped and transferred to the microtube and eventually spun down at 12,000 rpm for 15 minutes at 4° C. Finally, the supernatant was transferred to the new microtubes and stored at −20° C. Protein concentration was measured using Bradford Assay. Serial concentrations 0.125; 0.25; 0.5 and 1 mg/ml of Bovine Serum Albumin (BSA) (Sigma Aldrich) were used as a standard. Samples were boiled at 90° C. for 5 minutes in SDS sample loading buffer.

Ub Ser65 phosphorylation [5] = experiment: Phospho-Ub (Ub Ser65) immunoblotting in parkin- or YFP-parkin-transfected HeLa cells; type: cell-based; details: immunoblot; for ubiquitin phosphorylation, niclosamide or CCCP only (controls): YFP-parkin HeLa cells, 10 μM, 1 h; for phosphorylation of Ub at Ser65, niclosamide or CCCP treatment alone (controls): 10 μM CCCP 3 h
Description: as §4, §5, §6
The next day membranes were washed in TBST and incubated with horse radish peroxidase (HRP)-conjugated antibodies for 1 h at room temperature with agitation. Following TBST washes, proteins were visualised using Amersham™ ECL™ Prime kit (GE Biosciences) and imaged using the Bio-rad ChemicDoc. Primary antibodies used for western blotting; GAPDH (Abcam cat #ab9485), Phospho-Ub Ser 65 (Sigma-Aldrich cat #ABS1513-1), LC3B (Cell Signaling cat #3868S). Secondary antibodies used for western blotting; anti-rabbit HRP (Agilent Dako cat #P0399), anti-mouse HRP (Agilent Dako cat #P0260).
(§7) To explore this, we first treated parkin-transfected HeLa cells for 24 h with 50 μM kinetin, kinetin riboside or kinetin riboside ProTide, a monophosphate prodrug of kinetin riboside.

PINK1 [6] = target: T1, PINK1; details: in presence of the de-polarizing agent CCCP; cited from earlier work
OPA1 = OPA1 cleavage immunoblot (mitochondrial membrane depolarization) in parkin-transfected HeLa cells; type: cell-based; details: 10 μM CCCP 3 h
Description: as §4, §5, §6, §7

[7] = tested on: HeLa cells transfected with YFP-parkin; experiment: TMRM fluorescence (mitochondrial membrane potential); type: cell-based
Description: For assessing tetramethylrhodamine methyl ester perchlorate (TMRM) fluorescence, cell media was removed and replaced with cell media consisting of 5 nM TMRM (ThermoFisher) and 10 μg/ml Hoechst 33258 stain for 30 mins in the dark at 37° C. to allow incorporation of TMRM into mitochondria. Following PBS washes, FluoroBrite DMEM (Gibco) media was added to cells, followed by subsequent imaging using a Zeiss LSM800 microscope at 37° C. with 5% CO2.

[8] = tested on: immortalised MEF expressing PINK1 wild-type (WT); experiment: MitoQC mitophagy assay, MEF expressing PINK1 wild-type; type: cell-based; details: 20 μM CCCP, 24 h
From the text: (§8) With the inhibition of ubiquitin phosphorylation and parkin localisation to the mitochondria by kinetin riboside and the nucleoside analogue 9c, we next asked whether these compounds still induce mitophagy in a PINK1 dependent manner. To explore this, we employed the established MitoQC assay for measuring mitophagy in cells^11,12.

PINK1 KO MEFs = experiment: MitoQC mitophagy assay, PINK1 knock-out MEF; type: cell-based; details: 20 μM CCCP, 24 h
From the text: as §8

[9] = 50 μM, 24 h, no niclosamide or CCCP

T1 sequence (Q9BXM7 78-581): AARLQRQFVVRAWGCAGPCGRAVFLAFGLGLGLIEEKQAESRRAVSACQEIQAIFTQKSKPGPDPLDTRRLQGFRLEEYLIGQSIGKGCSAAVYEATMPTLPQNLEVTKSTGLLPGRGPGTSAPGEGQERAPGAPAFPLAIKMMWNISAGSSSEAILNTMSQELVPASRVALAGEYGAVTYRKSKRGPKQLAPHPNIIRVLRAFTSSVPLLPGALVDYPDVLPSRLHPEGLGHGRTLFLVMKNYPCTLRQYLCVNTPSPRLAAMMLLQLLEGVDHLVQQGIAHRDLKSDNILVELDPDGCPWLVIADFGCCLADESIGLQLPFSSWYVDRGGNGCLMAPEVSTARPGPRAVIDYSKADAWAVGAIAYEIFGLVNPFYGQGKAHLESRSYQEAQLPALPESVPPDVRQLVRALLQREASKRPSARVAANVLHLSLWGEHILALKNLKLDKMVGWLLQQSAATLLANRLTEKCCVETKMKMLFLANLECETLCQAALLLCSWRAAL

For `CNc1ncnc2c1ncn2[C@@H]1O[C@H](CO)[C@@H](O)[C@H]1O` [9a, (2R,3S,4R,5R)-2-(hydroxymethyl)-5-(6-(methylamino)-9H-purin-9-yl)tetrahydrofuran-3,4-diol], the “ubiquitin Ser65 phosphorylation after pre-treatment followed by CCCP, compared to CCCP alone” value (Ub Ser65 phosphorylation [1]; 50 μM 24 h, then 10 μM CCCP, immunofluorescence) was “did not have a significant impact”, the “impact on ubiquitin phosphorylation, compound alone” value (Ub Ser65 phosphorylation [1]; 50 μM, 24 h, no niclosamide or CCCP, immunofluorescence) was “did not have any impact” and the “parkin localisation to the mitochondria after pre-treatment followed by CCCP, compared to CCCP alone” value ([2]; 50 μM 24 h, then 10 μM CCCP) was “did not have a significant impact”. For the same compound, the “impact on mitochondrial fragmentation (TOM20), compound alone” value [2, 9] was “did not have any impact”, the “impact on parkin localisation, compound alone” value [2, 9] was “did not have any impact” and the “ubiquitin Ser65 phosphorylation after pre-treatment followed by valinomycin, compared to valinomycin alone” value [3] was “significant suppression of ubiquitin Ser65 phosphorylation”. The “ubiquitin Ser65 phosphorylation, compound alone” value [3] was “increased phosphorylation”.

For `CC(C)(C)CNc1ncnc2c1ncn2[C@@H]1O[C@H](CO)[C@@H](O)[C@H]1O` [9f, (2R3S,4R,5R)-2-(hydroxymethyl)-5-(6-(neopentylamino)-9K-purin-9-yl)tetrahydrofuran-3,4-diol], the “activation of PINK1 as judged by parkin Ser65 phosphorylation” value (PINK1 [4]) was “exhibited pronounced activation of PINK1 apart from compound 9f”.

With `c1coc(CNc2ncnc3[nH]cnc23)c1` [kinetin, reference compound] the “inhibition of CCCP-induced phosphorylation of ubiquitin by pre-treatment” value (Ub Ser65 phosphorylation [5]; parkin-transfected HeLa cells, 50 μM 24 h, then 10 μM CCCP 3 h) was “did not”, the “phosphorylation of ubiquitin (Ub Ser65), compound alone” value (Ub Ser65 phosphorylation [5]; parkin-transfected HeLa cells, 50 μM, 24 h, no CCCP) was “did not lead to any notable phosphorylation of ubiquitin” and the “ubiquitin Ser65 phosphorylation after pre-treatment followed by valinomycin, compared to valinomycin alone” value [3] was “significant suppression of ubiquitin Ser65 phosphorylation”. The “ubiquitin Ser65 phosphorylation, compound alone” value [3] was “increased phosphorylation” and the “PINK1 activation in cells exposed to CCCP” value (PINK1 [6]) was “enhanced PINK1 activation”.

With `O=C(Nc1ccc([N+](=O)[O-])cc1Cl)c1cc(Cl)ccc1O` [niclosamide, reference compound] the “phosphorylation of ubiquitin, niclosamide or CCCP alone” value (Ub Ser65 phosphorylation [1]; YFP-parkin HeLa cells, 10 μM, 1 h, immunofluorescence) was “induced significant phosphorylation of ubiquitin”, the “ubiquitin phosphorylation, niclosamide or CCCP only (controls)” value (Ub Ser65 phosphorylation [5]) was “induced strong ubiquitin phosphorylation” and the “phosphorylation of Ub at Ser65, niclosamide or CCCP treatment alone (controls)” value (Ub Ser65 phosphorylation [5]; parkin-transfected HeLa cells) was “strong phosphorylation of Ub at Ser65”. The “OPA1 cleavage (mitochondrial membrane depolarization), niclosamide or CCCP alone” value (OPA1) was “led to OPA1 cleavage” and the “mitochondrial membrane potential, niclosamide or CCCP” value ([7]; 10 μM, data not shown) was “membrane potential collapse”.

For “carbonyl cyanide m-chlorophenyl-hydrazine [CCCP, reference compound]”, the “phosphorylation of ubiquitin, niclosamide or CCCP alone” value (Ub Ser65 phosphorylation [1]) was “induced significant phosphorylation of ubiquitin; also recorded: induced strong ubiquitin phosphorylation”, the “parkin localisation to the mitochondria, CCCP treatment alone” value ([2]; 10 μM CCCP) was “promoted parkin localisation to the mitochondria” and the “ubiquitin phosphorylation, niclosamide or CCCP only (controls)” value (Ub Ser65 phosphorylation [5]) was “induced strong ubiquitin phosphorylation”. For the same compound, the “phosphorylation of Ub at Ser65, niclosamide or CCCP treatment alone (controls)” value (Ub Ser65 phosphorylation [5]; parkin-transfected HeLa cells) was “strong phosphorylation of Ub at Ser65”, the “mitophagy in PINK1 WT MEFs, CCCP” value [8] was “induced an increase in mitophagy” and the “OPA1 cleavage (mitochondrial membrane depolarization), niclosamide or CCCP alone” value (OPA1) was “led to OPA1 cleavage; also recorded: associated with cleavage of OPA1”. For the same compound, the “mitochondrial membrane potential, niclosamide or CCCP” value [7] was “membrane potential collapse” and the “mitophagy in PINK1 KO MEFs, CCCP” value (PINK1 KO MEFs) was “not in PINK1 KO MEFs”.

— patent US20260014184A1, “ADENOSINE DERIVATIVES FOR USE IN THE TREATMENT OF NEURODEGENERATIVE DISORDERS AND CANCER” (UNIVERSITY COLLEGE CARDIFF CONSULTANTS LIMITED, priority 2022, published 2026)
